Experimental data taken from patent publication US10112890B2, “Compound, salt of compound, external agent for skin, cosmetic, and food additive” (SHOWA DENKO K.K., priority 2015, dated 2018).

Tested on: three-dimensionally cultured human skin model ("EPI-606X")
Assay: Skin permeability test
Format: in vitro ADME
Conditions: 24 hours; for Permeability (%): permeability into the skin model, 0.2% by mass sample solution in PBS (-), pH 7.4, 700 μL, 37° C., skin model extract plus receiver liquid, HPLC, (A/1400)×100; for permeability compared with sodium pantothenate / permeability compared with compound (9)-101: skin model, comparison in words
From the text: The compound (1)-301, the compound (1)-302, the compound (9)-101, and sodium pantothenate (manufactured by Tokyo Kasei Kogyo Co., Ltd., the compound represented by the following formula) were respectively dissolved in Dubecco's PBS (−), and the pH of a solution was adjusted to 7.4 using a sodium hydroxide aqueous solution or hydrochloric acid, to obtain a solution having a concentration of 0.2% by mass as a sample solution. A three-dimensionally cultured human skin model (“EPI-606X”, manufactured by KURABO INDUSTRIES LTD.) was set such that the lower portion thereof was immersed in a 6-well plate containing the PBS solution (1 mL), and was allowed to stand in an incubator for 30 minutes under conditions of 37° C. at a carbon dioxide concentration of 5%. Next, the PBS solution was replaced with an HBSS (−) solution (1 mL) (hereinafter, referred to as a “receiver liquid”), the sample solution (700 μL) obtained in the above-described manner was added to the skin model, and the skin model was allowed to stand in an incubator under conditions of 37° C. at a carbon dioxide concentration of 5%. After the skin model was allowed to stand for 24 hours, the sample solution on the skin model was removed using a pipette, the skin model was taken out from the well and washed with the PBS (−) solution. Subsequently, a slice was cut from the skin model and put into a 2 mL tube. Methanol (1 mL) and stainless steel beads (manufactured by Tomy Company, Ltd., diameter of 5.5 mm) were added to the tube, and the slice was crushed under conditions of 2000 rpm for 10 seconds ten times using MULTI BEADS SHOCKER (manufactured by Yasui Kikai Corporation). After the slice was crushed, the obtained solution was transferred to a 2 mL Eppendorf tube and centrifuged at 12000 rpm for 5 minutes, the supernatant was filtered using a filter (pore size of 0.22 μm), thereby obtaining a skin model extract. Next, the compound (1)-301, the compound (1)-302, the compound (9)-101, and sodium pantothenate in the skin model extract and the receiver liquid were quantified by analyzing each of the compounds (test substances) using HPLC described above, and a total value A (μg) of these quantitative values was calculated. Further, the permeability into the skin model (%) of each of the compound (1)-301 (Example 1), the compound (1)-302 (Example 2), the compound (9)-101 (Reference Example 1), and sodium pantothenate (Comparative Example 1) added to the skin model was calculated according to Equation (i). Permeability (%)=(A/1400)×100 (i)

Row | Permeability (%) | permeability compared with sodium pantothenate | permeability compared with compound (9)-101 | SMILES
1 | 29 ± 0.8% | clearly higher permeability |  | CCCCCCCCCC(=O)OCC(C)(C)C(O)C(=O)NCCC(=O)O (stereo not drawn) [Compound (9)-101, 3-[N-(4-decanoyloxy-3,3-dimethyl-2-hydroxybutyryl)amino]propionic acid, reference compound]
2 | 41 ± 4.7% | clearly higher permeability | clearly higher permeability | CCCCCCCCCCCCCCCC(=O)OCC(C)(C)C(O)C(=O)NCCC(=O)O (stereo not drawn) [Compound (1)-301, 3-[N-(4-hexadecanoyloxy-3,3-dimethyl-2-hydroxybutyryl)amino]propionic acid]
3 | 18 ± 0.4% |  |  | CC(C)(CO)[C@@H](O)C(=O)NCCC(=O)[O-].[Na+] [Sodium pantothenate, sodium pantothenate, reference compound]
4 | 44 ± 2.7% | clearly higher permeability | clearly higher permeability | CCCCCCCCC(CCCCCC)C(=O)OCC(C)(C)C(O)C(=O)NCCC(=O)O (stereo not drawn) [Compound (1)-302, 3-[N-(4-(2-hexyldecanoyl)oxy-3,3-dimethyl-2-hydroxybutyryl)amino]propionic acid]
